Measurements published in patent publication US8518883B2, “Method of reducing deleterious effects of ischemia by administration of a thrombopoietin receptor ligand” (MCW Research Foundation, Inc., priority 2006, dated 2013).
Entries after “also recorded” stand apart in the source; their conditions may differ.

Legend:
[1] = system: in vitro rat hearts; assay: TUNEL assay of apoptosis in isolated rat hearts after global ischemia/reperfusion
Protocol: Hearts from Sprague Dawley rats perfused continuously with bicarbonate buffer for 245 minutes served as non-ischemic controls (FIG. 5). Hearts aerobically perfused for 35 minutes and subjected to 25 minutes of global ischemia followed by 3 hours reperfusion served as the ischemia-reperfusion control group. Hearts aerobically perfused with buffer for 20 minutes and then perfused with Tpo (1 ng/ml) for 15 minutes before ischemia and reperfusion served as a Tpo-treated group. Each heart at the end of perfusion was snap frozen in liquid nitrogen. Four frozen sections (10 micron thick) from each heart (72 sections total) were processed for TUNEL assay according to the manufacturers protocol (Roche). The slides were examined under fluorescent microscope (400× magnification, excitation 490 nm, and emission 515 nm). Twenty-two random high-power fields from each heart sample were chosen and blindly quantified. TUNEL results are presented as % (positive nuclei per field/total nuclei per field×100%).

[2] = system: rats; assay: Platelet count and hematocrit after single Tpo treatment; assay type: in vivo, rat
Protocol: Prior to treatment, platelet counts in untreated rats were 850±96 10^3/ul, and the hematocrit in untreated rats was 43.8±1.8%.
FIG. 13A/B is a plot of additional data (mean±standard deviation, n+6 per group) that evaluated a single dose of Tpo (1.0 μg/kg i.v.) on platelet count and hematocrit. There was no effect.

[3] = system: healthy individuals and those about to receive chemotherapy; details: human trials, Tpo doses of 1-5 μg/kg; cited from earlier work
[4] = system: Sprague Dawley rats; assay: Coronary artery ligation model, regional myocardial ischemia in vivo, Tpo given 15 min prior to ischemia; design: species or system rat
Protocol: Animals used in this study were adult male Sprague Dawley rats (200-350 g, generally 300 g). Animals were housed under standard conditions and allowed to feed ad lib. The Animal Care and Use Committee of the Medical College of Wisconsin approved all procedures performed in accordance with the regulations adopted by the National Institutes of Health.
Rats were anesthetized with sodium pentobarbital (50 mg/kg i.p.). Heparin was administered (150 U/kg i.p.) to prevent the formation of a thrombus in the coronary vasculature. A myocardial infarction was produced via the ligation of the left main artery using 6-0 prolene suture (See, e.g., Clements-Jewery, et al., Br. J. Pharmacol. 135:807-815, 2002; Farkas, et al., J. Cardiovasc. Pharmacol. 39:412-424, 2002). The left main coronary artery was identified and ligated with a 5-0 Prolene suture threaded through a polyethylene tube to act as an occluder. A control group included sham operated hearts in which only a suture was passed around the left main coronary artery was performed.
Animals were treated with Tpo (0.005-0.5 micrograms/kg) administered intravenously for 15 minutes prior to the onset of ischemia. Regional ischemia and reperfusion were induced by tightening the occluder and by releasing it. Hearts were then subjected to 30 minutes regional ischemia followed by 3 hours reperfusion. Recovery of left ventricular developed pressure and infarct size/area at risk at 3 hours reperfusion were used to assess resistance to myocardial ischemia. For characterization of infarction size, hearts were perfused with 10 ml bicarbonate buffer containing triphenyltetrazolium chloride (SIGMA) at 37° C.
The heart was sectioned in 2 mm segments from apex to atrio-ventricular groove in a transverse fashion. Each segment was recorded and placed in formalin. After twenty-four (24) hours, the specimen was digitally photographed in a camera mount to normalize specimen-to-lens distance. Each photograph was then appended to Adobe Photoshop (Adobe™) to measure pixel density of infarcted versus non-infarcted areas. The percentage of infarction of each slide was expressed as a percentage of the entire area of the heart.
There was no significant difference in body weight, heart weight or risk zone size between groups. […] Significant differences were found for mean arterial pressure and rate pressure for some groups when compared to sham. For each group, the area at risk compared to total left ventricle weight was calculated. There were no significant differences seen between groups (data not shown).

[5] = single Tpo 0.05 μg/kg i.v., 14 day follow up
[6] = single Tpo 1.0 μg/kg i.v., 28 day follow up
[7] = 15 min ISCHEMIA, Tpo 0.005 μg/kg i.v.
[8] = 15 min ISCHEMIA, Tpo 0.05 μg/kg i.v.
[9] = 15 min ISCHEMIA, Tpo 0.5 μg/kg i.v.
[10] = 3 hr REPERFUSION, Tpo 0.005 μg/kg i.v.
[11] = 3 hr REPERFUSION, Tpo 0.05 μg/kg i.v.
[12] = 3 hr REPERFUSION, Tpo 0.5 μg/kg i.v.

## Thrombopoietin [Tpo]
[1]; Tpo 1.0 ng/ml 15 min before 25 min global ischemia, 3 hours reperfusion, ischemia control 3.56±0.75%, non-ischemic 1.91±0.54%
  TUNEL-positive cells: 1.94±0.55%
[1]; Tpo 1.0 ng/ml prior to ischemia
  Apoptosis following ischemia and reperfusion: reduced
[2]; [5]
  Hematocrit: remained unchanged; also recorded: did not result in an increased
  Platelet count: remained unchanged; also recorded: did not result in an increased
[2]; [6]
  Hematocrit: no effect
  Platelet count: no effect
[3]
  Increase of platelet production: 5-10 times
[4]; [7]
  Heart rate: 374 ± 12 beats/min
  Mean arterial pressure: 104 ± 11 mmHg
[4]; [8]
  Heart rate: 352 ± 11 beats/min
  Mean arterial pressure: 124 ± 11 mmHg
[4]; [9]
  Heart rate: 382 ± 13 beats/min
  Mean arterial pressure: 121 ± 13 mmHg
[4]; [10]
  Heart rate: 359 ± 13 beats/min
  Mean arterial pressure: 92 ± 7 mmHg
[4]; [11]
  Heart rate: 332 ± 11 beats/min
  Mean arterial pressure: 105 ± 11 mmHg
[4]; [12]
  Heart rate: 364 ± 13 beats/min
  Mean arterial pressure: 108 ± 16 mmHg
[4]; BASELINE, Tpo 0.005 μg/kg i.v.
  Heart rate: 386 ± 17 beats/min
  Mean arterial pressure: 133 ± 13 mmHg
[4]; BASELINE, Tpo 0.05 μg/kg i.v.
  Heart rate: 342 ± 16 beats/min
  Mean arterial pressure: 138 ± 6 mmHg
[4]; BASELINE, Tpo 0.5 μg/kg i.v.
  Heart rate: 371 ± 11 beats/min
  Mean arterial pressure: 144 ± 6 mmHg
[4]; Tpo 0.005-0.5 μg/kg i.v. 15 min prior to ischemia
  Optimal concentration of Tpo that afforded maximum reduction of infarct size: 0.05 µg/kg
[4]; Tpo i.v. 15 min prior to 30 min regional ischemia, 3 hours reperfusion, 'U' shaped dose dependence
  Post ischemic myocardial infarct size: decreased
